Measured values as given in paper PMC11420776 (RSC Advances, 2024).

What was measured:
MALME-3M (melanoma) = test: NCI 60-cell one-dose antiproliferative screen; type: cell-based, human; conditions: one dose 10 μM
[1] = test system: MDA-MB-468 (breast cancer); test: NCI 60-cell one-dose antiproliferative screen; type: cell-based, human; conditions: one dose 10 μM
OVCAR-3 (ovarian cancer) = test: NCI 60-cell one-dose antiproliferative screen; type: cell-based, human; conditions: one dose 10 μM
PC-3 (prostate cancer) = test: NCI 60-cell one-dose antiproliferative screen; type: cell-based, human; conditions: one dose 10 μM
UO-31 (renal cancer) = test: NCI 60-cell one-dose antiproliferative screen; type: cell-based, human; conditions: one dose 10 μM
[2] = test system: NCI-H460 (NSC lung cancer); test: NCI 60-cell one-dose antiproliferative screen; type: cell-based, human; conditions: one dose 10 μM
RPMI-8226 (leukemia) = test: NCI 60-cell one-dose antiproliferative screen; type: cell-based, human; conditions: one dose 10 μM
SF-268 (CNS cancer) = test: NCI 60-cell one-dose antiproliferative screen; type: cell-based, human; conditions: one dose 10 μM
CCRF-CEM (leukemia) = test: NCI 60-cell one-dose antiproliferative screen; type: cell-based, human; conditions: one dose 10 μM
RXF 393 (renal cancer) = test: NCI 60-cell one-dose antiproliferative screen; type: cell-based, human; conditions: one dose 10 μM
DU-145 (prostate cancer) = test: NCI 60-cell one-dose antiproliferative screen; type: cell-based, human; conditions: one dose 10 μM
SK-OV-3 (ovarian cancer) = test: NCI 60-cell one-dose antiproliferative screen; type: cell-based, human; conditions: one dose 10 μM
MDA-MB-435 (melanoma) = test: NCI 60-cell one-dose antiproliferative screen; type: cell-based, human; conditions: one dose 10 μM
HT29 (colon cancer) = test: NCI 60-cell one-dose antiproliferative screen; type: cell-based, human; conditions: one dose 10 μM
[3] = test system: NCI-H23 (NSC lung cancer); test: NCI 60-cell one-dose antiproliferative screen; type: cell-based, human; conditions: one dose 10 μM
HCT-116 (colon cancer) = test: NCI 60-cell one-dose antiproliferative screen; type: cell-based, human; conditions: one dose 10 μM
OVCAR-4 (ovarian cancer) = test: NCI 60-cell one-dose antiproliferative screen; type: cell-based, human; conditions: one dose 10 μM
SF-295 (CNS cancer) = test: NCI 60-cell one-dose antiproliferative screen; type: cell-based, human; conditions: one dose 10 μM
IGROV1 (ovarian cancer) = test: NCI 60-cell one-dose antiproliferative screen; type: cell-based, human; conditions: one dose 10 μM
SK-MEL-2 (melanoma) = test: NCI 60-cell one-dose antiproliferative screen; type: cell-based, human; conditions: one dose 10 μM
MCF7 (breast cancer) = test: NCI 60-cell one-dose antiproliferative screen; type: cell-based, human; conditions: one dose 10 μM
SF-539 (CNS cancer) = test: NCI 60-cell one-dose antiproliferative screen; type: cell-based, human; conditions: one dose 10 μM
OVCAR-8 (ovarian cancer) = test: NCI 60-cell one-dose antiproliferative screen; type: cell-based, human; conditions: one dose 10 μM
SNB-19 (CNS cancer) = test: NCI 60-cell one-dose antiproliferative screen; type: cell-based, human; conditions: one dose 10 μM
UACC-257 (melanoma) = test: NCI 60-cell one-dose antiproliferative screen; type: cell-based, human; conditions: one dose 10 μM
OVCAR-5 (ovarian cancer) = test: NCI 60-cell one-dose antiproliferative screen; type: cell-based, human; conditions: one dose 10 μM
HCC-2998 (colon cancer) = test: NCI 60-cell one-dose antiproliferative screen; type: cell-based, human; conditions: one dose 10 μM
HOP-62 (NSC lung cancer) = test: NCI 60-cell one-dose antiproliferative screen; type: cell-based, human; conditions: one dose 10 μM
A498 (renal cancer) = test: NCI 60-cell one-dose antiproliferative screen; type: cell-based, human; conditions: one dose 10 μM
T-47D (breast cancer) = test: NCI 60-cell one-dose antiproliferative screen; type: cell-based, human; conditions: one dose 10 μM
[4] = test system: NCI-H522 (NSC lung cancer); test: NCI 60-cell one-dose antiproliferative screen; type: cell-based, human; conditions: one dose 10 μM
786-0 (renal cancer) = test: NCI 60-cell one-dose antiproliferative screen; type: cell-based, human; conditions: one dose 10 μM
[5] = test system: NCI-H226 (NSC lung cancer); test: NCI 60-cell one-dose antiproliferative screen; type: cell-based, human; conditions: one dose 10 μM
SK-MEL-28 (melanoma) = test: NCI 60-cell one-dose antiproliferative screen; type: cell-based, human; conditions: one dose 10 μM
COLO-205 (colon cancer) = test: NCI 60-cell one-dose antiproliferative screen; type: cell-based, human; conditions: one dose 10 μM
UACC-62 (melanoma) = test: NCI 60-cell one-dose antiproliferative screen; type: cell-based, human; conditions: one dose 10 μM
HS 578T (breast cancer) = test: NCI 60-cell one-dose antiproliferative screen; type: cell-based, human; conditions: one dose 10 μM
M14 (melanoma) = test: NCI 60-cell one-dose antiproliferative screen; type: cell-based, human; conditions: one dose 10 μM
HOP-92 (NSC lung cancer) = test: NCI 60-cell one-dose antiproliferative screen; type: cell-based, human; conditions: one dose 10 μM
[6] = test system: NCI-H322M (NSC lung cancer); test: NCI 60-cell one-dose antiproliferative screen; type: cell-based, human; conditions: one dose 10 μM
HCT-15 (colon cancer) = test: NCI 60-cell one-dose antiproliferative screen; type: cell-based, human; conditions: one dose 10 μM
SN12C (renal cancer) = test: NCI 60-cell one-dose antiproliferative screen; type: cell-based, human; conditions: one dose 10 μM
TK-10 (renal cancer) = test: NCI 60-cell one-dose antiproliferative screen; type: cell-based, human; conditions: one dose 10 μM
EKVX (NSC lung cancer) = test: NCI 60-cell one-dose antiproliferative screen; type: cell-based, human; conditions: one dose 10 μM
CAKI-1 (renal cancer) = test: NCI 60-cell one-dose antiproliferative screen; type: cell-based, human; conditions: one dose 10 μM
ACHN (renal cancer) = test: NCI 60-cell one-dose antiproliferative screen; type: cell-based, human; conditions: one dose 10 μM
LOX IMIV (melanoma) = test: NCI 60-cell one-dose antiproliferative screen; type: cell-based, human; conditions: one dose 10 μM
[7] = test system: MDA-MB-231/ATCC (breast cancer); test: NCI 60-cell one-dose antiproliferative screen; type: cell-based, human; conditions: one dose 10 μM
[8] = test system: NCI/ADR-RES (ovarian cancer); test: NCI 60-cell one-dose antiproliferative screen; type: cell-based, human; conditions: one dose 10 μM
SNB-75 (CNS cancer) = test: NCI 60-cell one-dose antiproliferative screen; type: cell-based, human; conditions: one dose 10 μM
SW-620 (colon cancer) = test: NCI 60-cell one-dose antiproliferative screen; type: cell-based, human; conditions: one dose 10 μM
U251 (CNS cancer) = test: NCI 60-cell one-dose antiproliferative screen; type: cell-based, human; conditions: one dose 10 μM
[9] = test system: 60 human tumor cell lines; test: NCI 60-cell one-dose antiproliferative screen, whole panel; type: cell-based; conditions: Homo sapiens, 60 cell, read-out: Mean inhibition (mean GI%)
KM12 (colon cancer) = test: NCI 60-cell one-dose antiproliferative screen; type: cell-based, human; conditions: one dose 10 μM
[10] = test system: A549/ATCC (NSC lung cancer); test: NCI 60-cell one-dose antiproliferative screen; type: cell-based, human; conditions: one dose 10 μM

## CN(C)c1ccc(C=NNc2ccc3nnc(-c4ccccc4)n3n2)cc1 [Compound 4c, N,N-Dimethyl-4-((2-(3-phenyl-[1,2,4]triazolo[4,3-b]pyridazin-6-yl)hydrazono)methyl)aniline]
MALME-3M (melanoma)
  GI%: — (— GI% is below 15%)
[1]
  GI%: — (— GI% is below 15%)
OVCAR-3 (ovarian cancer)
  GI%: 34.65%
PC-3 (prostate cancer)
  GI%: 18.94%
UO-31 (renal cancer)
  GI%: 18.89%
[2]
  GI%: 18.89%
RPMI-8226 (leukemia)
  GI%: — (— GI% is below 15%)
SF-268 (CNS cancer)
  GI%: 57.96%
CCRF-CEM (leukemia)
  GI%: — (— GI% is below 15%)
RXF 393 (renal cancer)
  GI%: 15.29%
DU-145 (prostate cancer)
  GI%: 26.64%
SK-OV-3 (ovarian cancer)
  GI%: — (— GI% is below 15%)
MDA-MB-435 (melanoma)
  GI%: — (— GI% is below 15%)
HT29 (colon cancer)
  GI%: — (— GI% is below 15%)
[3]
  GI%: 38.62%
HCT-116 (colon cancer)
  GI%: — (— GI% is below 15%)
OVCAR-4 (ovarian cancer)
  GI%: 41.36%
SF-295 (CNS cancer)
  GI%: — (— GI% is below 15%)
IGROV1 (ovarian cancer)
  GI%: — (— GI% is below 15%)
SK-MEL-2 (melanoma)
  GI%: — (— GI% is below 15%)
MCF7 (breast cancer)
  GI%: 34.47%
SF-539 (CNS cancer)
  GI%: — (— GI% is below 15%)
OVCAR-8 (ovarian cancer)
  GI%: 57.57%
SNB-19 (CNS cancer)
  GI%: 30.50%
UACC-257 (melanoma)
  GI%: — (— GI% is below 15%)
OVCAR-5 (ovarian cancer)
  GI%: — (— GI% is below 15%)
HCC-2998 (colon cancer)
  GI%: — (— GI% is below 15%)
HOP-62 (NSC lung cancer)
  GI%: — (— GI% is below 15%)
A498 (renal cancer)
  GI%: — (— GI% is below 15%)
T-47D (breast cancer)
  GI%: 22.66%
[4]
  GI%: 40.80%
786-0 (renal cancer)
  GI%: 18.27%
[5]
  GI%: — (— GI% is below 15%)
SK-MEL-28 (melanoma)
  GI%: — (— GI% is below 15%)
COLO-205 (colon cancer)
  GI%: — (— GI% is below 15%)
UACC-62 (melanoma)
  GI%: — (— GI% is below 15%)
HS 578T (breast cancer)
  GI%: 33.19%
M14 (melanoma)
  GI%: — (— GI% is below 15%)
HOP-92 (NSC lung cancer)
  GI%: 29.78%
[6]
  GI%: — (— GI% is below 15%)
HCT-15 (colon cancer)
  GI%: 19.56%
SN12C (renal cancer)
  GI%: — (— GI% is below 15%)
TK-10 (renal cancer)
  GI%: — (— GI% is below 15%)
EKVX (NSC lung cancer)
  GI%: 21.18%
CAKI-1 (renal cancer)
  GI%: 32.25%
ACHN (renal cancer)
  GI%: 21.61%
LOX IMIV (melanoma)
  GI%: 62.55%
[7]
  GI%: — (— GI% is below 15%)
[8]
  GI%: 55.19%
SNB-75 (CNS cancer)
  GI%: 65.40%
SW-620 (colon cancer)
  GI%: — (— GI% is below 15%)
U251 (CNS cancer)
  GI%: 24.58%
[9]
  inhibition at 10 µM: 17.7%
KM12 (colon cancer)
  GI%: 28.28%
[10]
  GI%: — (— GI% is below 15%)
